ChEMBL document CHEMBL1128302, “Synthesis, absolute configuration, and enantioselectivity of antiretroviral effect of (R)-(-)- and (S)-(+)-cytallene. Lipase-catalyzed enantioselective acylations of (+/-)-N4-acylcytallenes” (J Med Chem, 1995)

Assay: Inhibitory activity against HIV-1 replication in phytohemagglutininin-activated peripheral blood mononuclear (PHA-PBM) cells
Type: functional, Homo sapiens

| IC50 [nM] | IC90 (Homo sapiens) [nM] | IC90 [nM] | Compound |
| --- | --- | --- | --- |
| 400 | 1700 |  | Nc1ccn(C=C=CCO)c(=O)n1 (stereo in doubt; 2b) |
| 800 |  | 3400 | Nc1ccn(C=C=CCO)c(=O)n1 (stereo in doubt; 1b) |
| > 10000 |  |  | Nc1ccn(C=C=CCO)c(=O)n1 (stereo in doubt; 3c) |
